# Laboratory results: patent US7514443B2, “Substituted pyrazolo[1,5-a]pyrimidines as inhibitors of metabotropic glutamate receptors” (Hoffmann-La Roche Inc., priority 2003, dated 2009)
row,SMILES,melting point [°C]
1,"Cc1cc(-c2cc(C(F)(F)F)n3ncc(-c4ccnc(CO)c4)c3n2)ccc1C(F)(F)F [Example 6.2, 5-(3-Methyl-4-trifluoromethyl-phenyl)-3-(2-hydroxymethyl-pyridin-4-yl)-7-trifluoromethyl-pyrazolo[1,5-a]pyrimidine]",231
2,"N#Cc1cnn2c(C(F)(F)F)cc(-c3cccnc3)nc12 [Example 1.21, 5-Pyridin-3-yl-7-trifluoromethyl-pyrazolo[1,5-a]pyrimidine-3-carbonitrile]",193
3,"Cc1cc(-c2cc(C(F)(F)F)n3ncc(-c4ccncc4)c3n2)ccc1C(F)(F)F [Example 4.37, 5-(3-Methyl-4-trifluoromethyl-phenyl)-3-pyridin-4-yl-7-trifluoromethyl-pyrazolo[1,5-a]pyrimidine]",227
4,"Cc1cc(-c2ncn3c(C(F)(F)F)cc(-c4ccc(Br)cc4)nc23)ccn1 [Example 8.36, 2-(4-Bromo-phenyl)-8-(2-methyl-pyridin-4-yl)-4-trifluoromethyl-imidazo[1,5-a]pyrimidine]",249
5,"OCc1cc(-c2cnn3c(C(F)(F)F)cc(-c4ccc(Cl)c(Cl)c4)nc23)ccn1 [Example 6.4, {4-[5-(3,4-Dichloro-phenyl)-7-trifluoromethyl-pyrazolo[1,5-a]pyrimidin-3-yl]-pyridin-2-yl}-methanol]",233
6,"Cc1cc(-c2cnn3c(C(F)(F)F)cc(-c4ccc(OCC(F)(F)F)c(C(F)(F)F)c4)nc23)cc(C)n1 [Example 4.45, 5-[4-(2,2,2-Trifluoroethoxy)-3-trifluoromethyl-phenyl]-3-(2,6-dimethyl-pyridin-4-yl)-7-trifluoromethyl-pyrazolo[1,5-a]pyrimidine]",229
7,"Fc1ccc(-c2cc(C(F)(F)F)n3cnc(-c4cccnc4)c3n2)cc1Cl [Example 8.3, 2-(3-Chloro-4-fluoro-phenyl)-8-pyridin-3-yl-4-trifluoromethyl-imidazo[1,5-a]pyrimidine]",188
8,"Cc1cc(-c2cnn3c(C(F)(F)F)cc(-c4ccc(C(F)(F)F)c(OCC(F)(F)F)c4)nc23)ccn1 [Example 4.52, 3-(2-Methyl-pyridin-4-yl)-5-[3-(2,2,2-trifluoro-ethoxy)-4-trifluoromethyl-phenyl]-7-trifluoromethyl-pyrazolo[1,5-a]pyrimidine]",201
9,"Cc1cc(-c2cnn3c(C(F)(F)F)cc(-c4ccc(C(F)(F)F)cc4)nc23)ccn1 [Example 4.33, 5-(4-Trifluoromethyl-phenyl)-3-(2-methyl-pyridin-4-yl)-7-trifluoromethyl-pyrazolo[1,5-a]pyrimidine]",243
10,"N#Cc1cnn2c(C(F)(F)F)cc(-c3ccccc3Cl)nc12 [Example 1.3, 5-(2-Chloro-phenyl)-7-trifluoromethyl-pyrazolo[1,5-a]pyrimidine-3-carbonitrile]",169
11,"Cc1ccc(-c2cc(C(F)(F)F)n3ncc(-c4ccncc4)c3n2)cc1C(F)(F)F [Example 4.27, 5-(4-Methyl-3-trifluoromethyl-phenyl)-3-pyridin-4-yl-7-trifluoromethyl-pyrazolo[1,5-a]pyrimidine]",218
12,"FC(F)(F)c1cccc(-c2cc(C(F)(F)F)n3ncc(-c4cccnc4)c3n2)c1 [Example 4.13, 5-(3-Trifluoromethyl-phenyl)-3-pyridin-3-yl-7-trifluoromethyl-pyrazolo[1,5-a]pyrimidine]",171
13,"FC(F)(F)c1ccc(-c2cc(C(F)(F)F)n3ncc(-c4cccnc4)c3n2)cc1 [Example 4.14, 5-(4-Trifluoromethyl-phenyl)-3-pyridin-3-yl-7-trifluoromethyl-pyrazolo[1,5-a]pyrimidine]",163
14,"N#Cc1cnn2c(C(F)(F)F)cc(-c3ccc(F)cc3F)nc12 [Example 1.10, 5-(2,4-Difluoro-phenyl)-7-trifluoromethyl-pyrazolo[1,5-a]pyrimidine-3-carbonitrile]",149
